Assay results as given in ChEMBL document CHEMBL1141856, “Iridoid glycosides of Leonurus persicus” (J Nat Prod, 1999).
Active and inactive are the calls of the source. The rule behind the calls is not given here.

Test system: Staphylococcus epidermidis
Assay: Antimicrobial activity against Staphylococcus epidermidis at 50 ug/spot by agar overlay method
Format: functional, organism-based

COc1cc(/C=C/C(=O)O[C@H]2[C@H](O[C@@H]3O[C@@H](C)[C@H](O)[C@@H](O)[C@H]3O)[C@@H](O)[C@H](OCCc3ccc(O)c(O)c3)O[C@@H]2CO)ccc1O
Activity: Active
